We go through 26 compounds from US10934298B2, “Substituted pyrazolo[1,5-a]pyrimidines for the treatment of medical disorders” (BIAL—BioTech Investments, Inc., priority 2016, dated 2021).

For this assay, the target named is T1, glucocerebrosidase (Gcase) (Homo sapiens, UniProt P04062).
T1 construct: micellar solution containing 10 nM GCase and 100 nM saposin C
T1 sequence (P04062 40-536): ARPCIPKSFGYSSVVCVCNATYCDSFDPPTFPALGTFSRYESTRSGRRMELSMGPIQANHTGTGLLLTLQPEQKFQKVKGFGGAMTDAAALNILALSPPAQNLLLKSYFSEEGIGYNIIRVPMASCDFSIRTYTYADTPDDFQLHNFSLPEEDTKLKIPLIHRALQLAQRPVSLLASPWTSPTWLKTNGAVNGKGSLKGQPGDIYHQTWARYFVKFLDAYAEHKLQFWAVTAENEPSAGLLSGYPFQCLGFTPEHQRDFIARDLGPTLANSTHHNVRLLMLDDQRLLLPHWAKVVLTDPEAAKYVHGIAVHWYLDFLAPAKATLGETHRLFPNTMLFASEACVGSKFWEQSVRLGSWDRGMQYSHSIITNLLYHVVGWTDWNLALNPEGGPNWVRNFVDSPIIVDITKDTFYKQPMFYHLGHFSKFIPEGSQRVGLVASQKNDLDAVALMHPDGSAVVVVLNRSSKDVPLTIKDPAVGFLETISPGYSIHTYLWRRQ
In words: Glucocerebrosidase (Gcase) activation assay with 4-methylumbelliferyl-beta-D-glucopyranoside substrate, saposin C and phosphatidylserine/triton micelles, fluorescence readout. It is filed as biochemical. In outline: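 Readout is endpoint fluorescence (ex 365, em 440 nm) after glycine pH 12.5 stop of a 15-min room-temperature reaction. Enzyme mix: GCase 10 nM plus saposin C 100 nM in 0.37 mol % PS/0.32 mM triton micelles, pH 4.7, compound pre-incubated 30 min; substrate solution 2 mM before 1:1 mixing. Tested at 1.0/0.1 μM, then 3-fold, 8-point series up to 5 μM.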

SMILES strings stand for the structures.

Take `Cc1cc(-c2ccc(C#N)nc2)nc2c(C(=O)N[C@H](C3CC3)C(F)(F)F)cnn12` [III-367]: the “Percent Gcase Activation, 0.1 μM Test Compound” value is recorded as “** (Gcase activation in the range of 10% up to 20%)” and the “Percent Gcase Activation, 1 μM Test Compound” value was “+++ (Gcase activation greater than 60%)”.

Consider `Cc1cc(-c2ccc(C#N)nc2)nc2c(C(=O)N[C@@H](C3CC3)C(F)(F)F)cnn12` [III-368], for which the “Percent Gcase Activation, 0.1 μM Test Compound” value is “** (Gcase activation in the range of 10% up to 20%)” and the “Percent Gcase Activation, 1 μM Test Compound” value is reported as “+++ (Gcase activation greater than 60%)”.

`Cc1cc(-c2cncc(C#N)c2)nc2c(C(=O)NC(C)(C)C3CC3)cnn12` [III-369]: the “Percent Gcase Activation, 0.1 μM Test Compound” value is listed as “** (Gcase activation in the range of 10% up to 20%)” and the “Percent Gcase Activation, 1 μM Test Compound” value is on record as “+++ (Gcase activation greater than 60%)”.

Regarding `Cc1cc(-c2ccc(C#N)nc2)nc2c(C(=O)NC(C)(C)C3CC3)cnn12` [III-370], the “Percent Gcase Activation, 0.1 μM Test Compound” value was “* (less than 10% Gcase activation)” and the “Percent Gcase Activation, 1 μM Test Compound” value is recorded as “+++ (Gcase activation greater than 60%)”.

Consider `Cc1cc(-c2cccnc2C#N)nc2c(C(=O)NC(C)(C)C3CC3)cnn12` [III-371], for which the “Percent Gcase Activation, 0.1 μM Test Compound” value is on record as “* (less than 10% Gcase activation)” and the “Percent Gcase Activation, 1 μM Test Compound” value is on record as “+++ (Gcase activation greater than 60%)”.

Turning to `Cc1ccc(-c2cc(C)n3ncc(C(=O)N[C@H](C4CC4)C(F)(F)F)c3n2)c(F)n1` [III-372], the “Percent Gcase Activation, 0.1 μM Test Compound” value was “*** (greater than 20% Gcase activation)” and the “Percent Gcase Activation, 1 μM Test Compound” value was “+++ (Gcase activation greater than 60%)”.

As to `Cc1ccc(-c2cc(C)n3ncc(C(=O)N[C@@H](C4CC4)C(F)(F)F)c3n2)c(F)n1` [III-373], the “Percent Gcase Activation, 0.1 μM Test Compound” value is on record as “*** (greater than 20% Gcase activation)” and the “Percent Gcase Activation, 1 μM Test Compound” value is “+++ (Gcase activation greater than 60%)”.

For the compound `Cc1cnc(F)c(-c2cc(C)n3ncc(C(=O)N[C@H](C4CC4)C(F)(F)F)c3n2)c1` [III-374], the “Percent Gcase Activation, 0.1 μM Test Compound” value is listed as “*** (greater than 20% Gcase activation)” and the “Percent Gcase Activation, 1 μM Test Compound” value is recorded as “+++ (Gcase activation greater than 60%)”.

As for `Cc1cnc(F)c(-c2cc(C)n3ncc(C(=O)N[C@@H](C4CC4)C(F)(F)F)c3n2)c1` [III-375], the “Percent Gcase Activation, 0.1 μM Test Compound” value is given as “*** (greater than 20% Gcase activation)” and the “Percent Gcase Activation, 1 μM Test Compound” value was “+++ (Gcase activation greater than 60%)”.

With `Cc1ncccc1-c1cc(C)n2ncc(C(=O)N[C@H](C3CC3)C(F)(F)F)c2n1` [III-376], the “Percent Gcase Activation, 0.1 μM Test Compound” value is listed as “* (less than 10% Gcase activation)” and the “Percent Gcase Activation, 1 μM Test Compound” value was “+ (less than 30% Gcase activation)”.

Consider `Cc1ncccc1-c1cc(C)n2ncc(C(=O)N[C@@H](C3CC3)C(F)(F)F)c2n1` [III-377], for which the “Percent Gcase Activation, 0.1 μM Test Compound” value is recorded as “* (less than 10% Gcase activation)” and the “Percent Gcase Activation, 1 μM Test Compound” value is on record as “+ (less than 30% Gcase activation)”.

On to `Cc1ncc(F)cc1-c1cc(C)n2ncc(C(=O)N[C@H](C3CC3)C(F)(F)F)c2n1` [III-378], for which the “Percent Gcase Activation, 0.1 μM Test Compound” value is listed as “** (Gcase activation in the range of 10% up to 20%)” and the “Percent Gcase Activation, 1 μM Test Compound” value is listed as “+++ (Gcase activation greater than 60%)”.

As to `Cc1ncc(F)cc1-c1cc(C)n2ncc(C(=O)N[C@@H](C3CC3)C(F)(F)F)c2n1` [III-379], the “Percent Gcase Activation, 0.1 μM Test Compound” value is on record as “** (Gcase activation in the range of 10% up to 20%)” and the “Percent Gcase Activation, 1 μM Test Compound” value is “+++ (Gcase activation greater than 60%)”.

With `Cc1ncc(-c2cc(C)n3ncc(C(=O)N[C@H](C4CC4)C(F)(F)F)c3n2)cc1F` [III-380], the “Percent Gcase Activation, 0.1 μM Test Compound” value is “*** (greater than 20% Gcase activation)” and the “Percent Gcase Activation, 1 μM Test Compound” value is “+++ (Gcase activation greater than 60%)”.

For `Cc1ncc(-c2cc(C)n3ncc(C(=O)N[C@@H](C4CC4)C(F)(F)F)c3n2)cc1F` [III-381], the “Percent Gcase Activation, 0.1 μM Test Compound” value is given as “*** (greater than 20% Gcase activation)” and the “Percent Gcase Activation, 1 μM Test Compound” value is given as “+++ (Gcase activation greater than 60%)”.

For `Cc1cccc(-c2cc(C)n3ncc(C(=O)N[C@@H](C4CC4)C(F)(F)F)c3n2)n1` [III-382], the “Percent Gcase Activation, 0.1 μM Test Compound” value was “*** (greater than 20% Gcase activation)” and the “Percent Gcase Activation, 1 μM Test Compound” value is “+++ (Gcase activation greater than 60%)”.

Take `C#Cc1cncc(-c2cc(C)n3ncc(C(=O)N[C@@H](C4CC4)C(F)(F)F)c3n2)c1` [III-383]: the “Percent Gcase Activation, 0.1 μM Test Compound” value is “*** (greater than 20% Gcase activation)” and the “Percent Gcase Activation, 1 μM Test Compound” value is given as “+++ (Gcase activation greater than 60%)”.

For the compound `COCOc1cccc(-c2cc(C)n3ncc(C(=O)N[C@@H](C4CC4)C(F)(F)F)c3n2)n1` [III-384], the “Percent Gcase Activation, 0.1 μM Test Compound” value is “** (Gcase activation in the range of 10% up to 20%)” and the “Percent Gcase Activation, 1 μM Test Compound” value is reported as “+++ (Gcase activation greater than 60%)”.

Consider `Cc1nsc(C)c1-c1cc(C)n2ncc(C(=O)N[C@H](C3CC3)C(F)(F)F)c2n1` [III-385], for which the “Percent Gcase Activation, 0.1 μM Test Compound” value was “* (less than 10% Gcase activation)” and the “Percent Gcase Activation, 1 μM Test Compound” value is recorded as “+ (less than 30% Gcase activation)”.

On to `Cc1nsc(C)c1-c1cc(C)n2ncc(C(=O)N[C@@H](C3CC3)C(F)(F)F)c2n1` [III-386], for which the “Percent Gcase Activation, 0.1 μM Test Compound” value was “* (less than 10% Gcase activation)” and the “Percent Gcase Activation, 1 μM Test Compound” value is reported as “+ (less than 30% Gcase activation)”.

Regarding `Cc1sncc1-c1cc(C)n2ncc(C(=O)N[C@H](C3CC3)C(F)(F)F)c2n1` [III-387], the “Percent Gcase Activation, 0.1 μM Test Compound” value is reported as “*** (greater than 20% Gcase activation)” and the “Percent Gcase Activation, 1 μM Test Compound” value is on record as “+++ (Gcase activation greater than 60%)”.

Turning to `Cc1sncc1-c1cc(C)n2ncc(C(=O)N[C@@H](C3CC3)C(F)(F)F)c2n1` [III-388], the “Percent Gcase Activation, 0.1 μM Test Compound” value is “*** (greater than 20% Gcase activation)” and the “Percent Gcase Activation, 1 μM Test Compound” value is listed as “+++ (Gcase activation greater than 60%)”.

As to `Cc1nscc1-c1cc(C)n2ncc(C(=O)N[C@H](C3CC3)C(F)(F)F)c2n1` [III-389], the “Percent Gcase Activation, 0.1 μM Test Compound” value is on record as “*** (greater than 20% Gcase activation)” and the “Percent Gcase Activation, 1 μM Test Compound” value was “+++ (Gcase activation greater than 60%)”.

On to `Cc1nscc1-c1cc(C)n2ncc(C(=O)N[C@@H](C3CC3)C(F)(F)F)c2n1` [III-390], for which the “Percent Gcase Activation, 0.1 μM Test Compound” value is reported as “*** (greater than 20% Gcase activation)” and the “Percent Gcase Activation, 1 μM Test Compound” value is reported as “+++ (Gcase activation greater than 60%)”.

With `Cc1cc(-c2nnc(C(C)C)o2)nc2c(C(=O)N[C@H](C3CC3)C(F)(F)F)cnn12` [III-391], the “Percent Gcase Activation, 0.1 μM Test Compound” value is given as “** (Gcase activation in the range of 10% up to 20%)” and the “Percent Gcase Activation, 1 μM Test Compound” value is recorded as “+++ (Gcase activation greater than 60%)”.

For the compound `Cc1cc(-c2nnc(C(C)C)o2)nc2c(C(=O)N[C@@H](C3CC3)C(F)(F)F)cnn12` [III-392], the “Percent Gcase Activation, 0.1 μM Test Compound” value is “** (Gcase activation in the range of 10% up to 20%)” and the “Percent Gcase Activation, 1 μM Test Compound” value is recorded as “+++ (Gcase activation greater than 60%)”.
